Source: BindingDB's records for doi:10.1016/s0028-3908(00)00128-3 (University of Toronto, 2001)
pKi: −log10 of the molar value.

Biological target: Metabotropic glutamate receptor 8 (Rattus norvegicus, UniProt P70579)
Sequence (P70579 whole entry): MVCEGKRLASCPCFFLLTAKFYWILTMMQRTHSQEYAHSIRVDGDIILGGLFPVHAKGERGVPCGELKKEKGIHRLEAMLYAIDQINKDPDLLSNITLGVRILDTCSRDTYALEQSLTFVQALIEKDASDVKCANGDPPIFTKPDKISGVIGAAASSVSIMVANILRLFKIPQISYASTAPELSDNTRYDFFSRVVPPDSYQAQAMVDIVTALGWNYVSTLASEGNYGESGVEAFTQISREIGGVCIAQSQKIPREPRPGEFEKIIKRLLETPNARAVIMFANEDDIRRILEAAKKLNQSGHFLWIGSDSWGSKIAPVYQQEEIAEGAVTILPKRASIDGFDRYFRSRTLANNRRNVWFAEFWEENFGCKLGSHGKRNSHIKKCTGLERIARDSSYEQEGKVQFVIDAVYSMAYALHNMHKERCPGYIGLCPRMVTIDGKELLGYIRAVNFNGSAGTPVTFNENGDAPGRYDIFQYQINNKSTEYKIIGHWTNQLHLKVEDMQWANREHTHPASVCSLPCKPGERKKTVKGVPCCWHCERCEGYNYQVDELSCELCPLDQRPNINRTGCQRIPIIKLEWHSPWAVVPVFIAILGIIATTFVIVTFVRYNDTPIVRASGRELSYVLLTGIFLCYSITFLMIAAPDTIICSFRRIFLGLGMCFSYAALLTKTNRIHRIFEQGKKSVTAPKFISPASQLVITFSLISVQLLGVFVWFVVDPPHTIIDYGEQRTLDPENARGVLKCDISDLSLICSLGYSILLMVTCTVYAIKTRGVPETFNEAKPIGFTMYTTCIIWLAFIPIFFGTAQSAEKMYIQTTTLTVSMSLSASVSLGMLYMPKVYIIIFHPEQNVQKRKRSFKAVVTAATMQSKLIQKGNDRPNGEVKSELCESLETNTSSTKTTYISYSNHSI

Row | Compound | pKi
1 | N[C@H](CCP(=O)(O)O)C(=O)O [D-AP4] | < 5.00
2 | N[C@@H](COP(=O)(O)O)C(=O)O | 5.92
3 | CC(N)(C(=O)O)c1ccc(P(=O)(O)O)cc1 (configuration not stated) | 6.32
4 | NC(CCC(=O)O)C(=O)O (configuration not stated) [glutamic acid dianion] | < 5.00
5 | N[C@@H](CCP(=O)(O)O)C(=O)O [2-Amino-4-phosphono-butyric acid] | 5.57
6 | NC(C(=O)O)c1ccc(P(=O)(O)O)cc1 (configuration not stated) [Amino-(4-phosphono-phenyl)-acetic acid(RS-PPG)] | 5.89
7 | C[C@@](N)(C(=O)O)c1ccc(C(=O)O)cc1 (racemic) | < 5.00
